Reference: patent US20260234135A1, “CRYSTALLINE FORMS OR SALTS OF A DEUTERATED COMPOUND” (ALEBUND PHARMACEUTICALS (HONG KONG) LIMITED, priority 2023, published 2026)
Where two headings read alike, the source gives them in different places.

Key:
[1] = Hygroscopicity evaluation by DVS at 25° C.; format: physicochemical; conditions: for Water uptake up to 80% RH: DVS, 25° C.; for Form change after DVS test: XRPD after DVS
Method: DVS was measured via a SMS (Surface Measurement Systems) DVS Intrinsic. The relative humidity at 25° C. were calibrated against deliquescence point of LiCl, Mg(NO3)2 and KCl.

[2H]C([2H])(Cc1nc(-c2ccccc2)oc1C)Oc1ccc(C[C@H](OC)C(=O)[O-])c2sccc12.[K+] [K salt Form C]
Area (%) of impurity peak RRT 1.34 (40° C./75% RH, 2 weeks): 0.24% | Area (%) of impurity peak RRT 1.34 (40° C./75% RH, 4 weeks): 0.25% | Area (%) of impurity peak RRT 1.34 (40° C./75% RH, 8 weeks): 0.25% | HPLC Purity (area %), main peak RRT 1.00 (40° C./75% RH/open, 2 weeks): 99.76 area % | HPLC Reults of initial (%) (40° C./75% RH/open, 2 weeks): 100.01% | HPLC Purity (area %), main peak RRT 1.00 (40° C./75% RH/open, 4 weeks): 99.75 area % | HPLC Reults of initial (%) (40° C./75% RH/open, 4 weeks): 100.00% | HPLC Purity (area %), main peak RRT 1.00 (40° C./75% RH/open, 8 weeks): 99.75 area % | HPLC Reults of initial (%) (40° C./75% RH/open, 8 weeks): 100.00% | Area (%) of impurity peak RRT 0.88 (60° C., 2 weeks): 0.10% | Area (%) of impurity peak RRT 1.14 (60° C., 2 weeks): 0.07% | Area (%) of impurity peak RRT 1.34 (60° C., 2 weeks): 0.26% | Area (%) of impurity peak RRT 0.88 (60° C., 4 weeks): 0.08% | Area (%) of impurity peak RRT 1.14 (60° C., 4 weeks): 0.04% | Area (%) of impurity peak RRT 1.34 (60° C., 4 weeks): 0.24% | Area (%) of impurity peak RRT 0.88 (60° C., 8 weeks): 0.09% | Area (%) of impurity peak RRT 1.34 (60° C., 8 weeks): 0.24% | Form or purity change after storage (60° C./close and 40° C./75% RH/open for 2/4/8 weeks): No purity decrease but form change | HPLC Purity (area %), main peak RRT 1.00 (60° C./close, 2 weeks): 99.57 area % | HPLC Reults of initial (%) (60° C./close, 2 weeks): 99.82% | HPLC Purity (area %), main peak RRT 1.00 (60° C./close, 4 weeks): 99.64 area % | HPLC Reults of initial (%) (60° C./close, 4 weeks): 99.89% | HPLC Purity (area %), main peak RRT 1.00 (60° C./close, 8 weeks): 99.67 area % | HPLC Reults of initial (%) (60° C./close, 8 weeks): 99.92% | Area (%) of impurity peak RRT 1.34 (Initial): 0.25% | HPLC Purity (area %), main peak RRT 1.00 (Initial): 99.75 area % | Water uptake up to 80% RH [1]: 12.0% | Form change after DVS test [1]: form change was observed

[2H]C([2H])(Cc1nc(-c2ccccc2)oc1C)Oc1ccc(C[C@H](OC)C(=O)[O-])c2sccc12.[Na+] [Na salt Form A]
Area (%) of impurity peak RRT 0.89 (40° C./75% RH, 2 weeks): 0.04% | Area (%) of impurity peak RRT 1.14 (40° C./75% RH, 2 weeks): 0.03% | Area (%) of impurity peak RRT 1.34 (40° C./75% RH, 2 weeks): 0.23% | Area (%) of impurity peak RRT 0.89 (40° C./75% RH, 4 weeks): 0.07% | Area (%) of impurity peak RRT 1.34 (40° C./75% RH, 4 weeks): 0.23% | Area (%) of impurity peak RRT 0.89 (40° C./75% RH, 8 weeks): 0.05% | Area (%) of impurity peak RRT 1.34 (40° C./75% RH, 8 weeks): 0.24% | HPLC Purity (area %), main peak RRT 1.00 (40° C./75% RH/open, 2 weeks): 99.71 area % | HPLC Reults of initial (%) (40° C./75% RH/open, 2 weeks): 100.03% | HPLC Purity (area %), main peak RRT 1.00 (40° C./75% RH/open, 4 weeks): 99.69 area % | HPLC Reults of initial (%) (40° C./75% RH/open, 4 weeks): 100.02% | HPLC Purity (area %), main peak RRT 1.00 (40° C./75% RH/open, 8 weeks): 99.71 area % | HPLC Reults of initial (%) (40° C./75% RH/open, 8 weeks): 100.03% | Form or purity change after storage (60° C. for 8 weeks): Slightly purity decrease and form change | Area (%) of impurity peak RRT 0.58 (60° C., 2 weeks): 0.10% | Area (%) of impurity peak RRT 0.79 (60° C., 2 weeks): 0.07% | Area (%) of impurity peak RRT 0.81 (60° C., 2 weeks): 0.10% | Area (%) of impurity peak RRT 0.89 (60° C., 2 weeks): 0.08% | Area (%) of impurity peak RRT 0.91 (60° C., 2 weeks): 0.05% | Area (%) of impurity peak RRT 1.14 (60° C., 2 weeks): 0.05% | Area (%) of impurity peak RRT 1.34 (60° C., 2 weeks): 0.22% | Area (%) of impurity peak RRT 0.29 (60° C., 4 weeks): 0.07% | Area (%) of impurity peak RRT 0.58 (60° C., 4 weeks): 0.16% | Area (%) of impurity peak RRT 0.63 (60° C., 4 weeks): 0.05% | Area (%) of impurity peak RRT 0.79 (60° C., 4 weeks): 0.13% | Area (%) of impurity peak RRT 0.81 (60° C., 4 weeks): 0.20% | Area (%) of impurity peak RRT 0.86 (60° C., 4 weeks): 0.06% | Area (%) of impurity peak RRT 0.89 (60° C., 4 weeks): 0.08% | Area (%) of impurity peak RRT 0.91 (60° C., 4 weeks): 0.10% | Area (%) of impurity peak RRT 0.95 (60° C., 4 weeks): 0.05% | Area (%) of impurity peak RRT 1.34 (60° C., 4 weeks): 0.20% | Area (%) of impurity peak RRT 0.29 (60° C., 8 weeks): 0.11% | Area (%) of impurity peak RRT 0.58 (60° C., 8 weeks): 0.25% | Area (%) of impurity peak RRT 0.63 (60° C., 8 weeks): 0.12% | Area (%) of impurity peak RRT 0.79 (60° C., 8 weeks): 0.19% | Area (%) of impurity peak RRT 0.81 (60° C., 8 weeks): 0.35% | Area (%) of impurity peak RRT 0.86 (60° C., 8 weeks): 0.06% | Area (%) of impurity peak RRT 0.91 (60° C., 8 weeks): 0.21% | Area (%) of impurity peak RRT 0.95 (60° C., 8 weeks): 0.09% | Area (%) of impurity peak RRT 1.34 (60° C., 8 weeks): 0.20% | HPLC Purity (area %), main peak RRT 1.00 (60° C./close, 2 weeks): 99.33 area % | HPLC Reults of initial (%) (60° C./close, 2 weeks): 99.65% | HPLC Purity (area %), main peak RRT 1.00 (60° C./close, 4 weeks): 98.91 area % | HPLC Reults of initial (%) (60° C./close, 4 weeks): 99.23% | HPLC Purity (area %), main peak RRT 1.00 (60° C./close, 8 weeks): 98.43 area % | HPLC Reults of initial (%) (60° C./close, 8 weeks): 98.75% | Area (%) of impurity peak RRT 0.89 (Initial): 0.05% | Area (%) of impurity peak RRT 1.14 (Initial): 0.05% | Area (%) of impurity peak RRT 1.34 (Initial): 0.22% | HPLC Purity (area %), main peak RRT 1.00 (Initial): 99.68 area % | Form (XRPD after 40° C./75% RH/open, 2/4/8 weeks): New form | Water uptake up to 80% RH [1]: 5.5% | Form change after DVS test [1]: form change was observed
